Data reported in article PMC8406801, “Naringenin Inhibits Platelet Activation and Arterial Thrombosis Through Inhibition of Phosphoinositide 3-Kinase and Cyclic Nucleotide Signaling” (Frontiers in Pharmacology, 2021).
Several values for one entry are separate records, joined by “and”; a condition that tells them apart may be missing. Equal values may be shown once.

Columns and labels:
ERK1/2 phosphorylation = assay: Immunoblotting of phospho-ERK1/2 (Thr202/Tyr204) in ADP-stimulated washed platelets; type: cell-based, rat; details: ADP 10 μmol/L, single replicates; for p-ERK1/2 / t-ERK: raw data
Experimental: (§1) For in vitro platelet aggregation, aliquots of washed platelets were preincubated with vehicle or various concentrations of naringenin for 5 min and stimulated with ADP (10 μmol/L) under stirring at 37°C for 5 min. For ex vivo platelet aggregation, PRP was incubated at 37°C for 5 min and stimulated with ADP (5 μmol/L) under stirring at 37 °C. The platelet aggregation was terminated by adding ethylenediaminetetraacetic acid (EDTA; 10 mM). Total protein was prepared using RIPA lysis buffer and protein content was determined by bicinchoninic acid (BCA) protein assay kit. Equal amounts of platelet proteins (30 μg) were separated on 10% SDS polyacrylamide gel electrophoresis (SDS-PAGE) and then transferred to poly vinylidene difluoride (PVDF) membranes and subjected to western blot. Blots were blocked with TBS-Tween 20 containing 5% BSA and probed with primary antibodies diluted in blocking solution at 4°C overnight followed by incubation with the corresponding HRP secondary antibodies. The protein bands were visualized using enhanced chemiluminescence (ECL).
FIGURE 4 Naringenin inhibits PI3K-mediated signaling in ADP-induced platelets. Washed rat platelets were preincubated without or with naringenin at 37°C for 5 min, and then stimulated with ADP (10 μmol/L) under stirring for 5 min. Platelet proteins were then extracted and analyzed by immunoblotting using PI3Kp110β antibody (A) and phospho-specific antibodies such as Akt^Ser473 (B), Akt^Thr308 (C), ERK1/2^Thr202/Tyr204 (D) and GSK3β^Ser9 (E). Total level of GAPDH was measured on each sample as a loading control. The blots shown are representative of three separate experiments. The relative protein expression levels were quantified by ImageJ 1.47v software. The level of relative protein expression obtained with vehicle control (0 μM) was taken as 1. R represents the level of relative protein expression in resting platelets. Data are expressed as means ± SD (n = 3). *p < 0.05, **p < 0.01, ***p < 0.001 compared with the vehicle control group.

washed rat platelets = assay: ADP (10 μM)-induced aggregation of washed rat platelets; type: cell-based; details: for ADP-induced platelet aggregation (control group taken as 100%): mean ± SD, n = 6
Experimental: Platelet-rich plasma (PRP) was obtained, and after the addition of 100 ng/ml PGE1, platelets were pelleted at 900 × g for 10 min. […] Washed platelets were preincubated with vehicle (0.4% dimethyl sulfoxide) or various concentrations of naringenin in the presence of 2 mM CaCl2 for 5 min at 37°C, and then further stimulated by ADP (10 μM), thrombin (0.2 U/mL) or collagen (2 μg/ml). The maximum platelet aggregation rate was detected within 5 min with continuous stirring.
Platelet aggregation was induced by ADP using washed platelets and PRP. Washed platelets were preincubated with vehicle (containing 0.4% DMSO) or different doses (100, 200, 400, and 800 μM) of naringenin or naringin for 5 min before activation with ADP (10 μM) for 5 min.
FIGURE 1 Effects of naringenin and naringin on platelet aggregation. Chemical structure of naringin (A) and naringenin (B). The effects of naringin (C) or naringenin (D) on PRP were measured following stimulation with 10 μmol/L ADP. Rat washed platelet aggregation performed with or without different concentrations of naringin (E) or naringenin (F) was recorded after stimulation with 10 μmol/L ADP. Similarly, Washed platelet aggregation performed with vehicle or various concentrations of naringenin was recorded after stimulation with 0.2 U/mL thrombin (G) or 2 μg/ml collagen (H). WP represents washed platelets. Data are expressed as means ± SD (n = 6), the level of aggregation obtained at 5 min with vehicle-treated samples (0 μM) was taken as 100%. *p < 0.05, **p < 0.01, ***p < 0.001 compared with the vehicle control group.

PI3Kp110β = assay: Ex vivo immunoblotting of PI3Kp110β in ADP-stimulated PRP of treated rats; design: species or system rat; details: for PI3Kp110β / GAPDH (Fold to Control) / PI3Kp110β / GAPDH (raw data): ex vivo, Figure 8B
Experimental: Male SD rats were randomly divided into 5 groups with 6 rats in each group. […] Sixty minutes after the last sample treatment, blood was drawn from the abdominal aorta of rats into the siliconized vacutainers containing 1:9 (v/v) 3.8% sodium citrate. The collected blood was centrifuged at 100 × g for 10 min at room temperature to obtain PRP. […] The platelet counts of PRP were adjusted to 4×10^8 cells/mL using PPP. PRP was incubated for 5 min at 37°C and then stimulated by ADP (5 μM). The maximum platelet aggregation rate was determined as mentioned above.
as §1
Blood was collected and PRP was obtained after the last treatment. Platelet aggregation was induced by ADP (5 μmol/L) (A). Data are expressed as means ± SD (n = 6). After ADP stimulation, platelet proteins were then extracted and analyzed by immunoblotting using PI3Kp110β antibody (B) and phospho-specific antibodies such as Akt^Ser473 (C), Akt^Thr308 (D) and ERK1/2^Thr202/Tyr204 (E). Total level of GAPDH was measured on each sample as a loading control. The blots shown are representative of three separate experiments. The relative protein expression levels were quantified by ImageJ 1.47v software. The level of relative protein expression obtained with vehicle control was taken as 1. R represents the level of relative protein expression in resting platelets. Data are expressed as means ± SD (n = 3). *p < 0.05, **p < 0.01, ***p < 0.001 compared with the vehicle control group (Con).
To further investigate the antiplatelet mechanisms of naringenin ex vivo, several signaling molecules such as PI3Kp110β, Akt and ERK were detected. After oral administration of naringenin (200, 400, and 800 mg/kg) to rats for 7 days, rat PRP was prepared and stimulated by ADP (5 μmol/L), and platelets were lysed to determine protein phosphorylation levels using western blot.

SMILES: O=C1C[C@@H](c2ccc(O)cc2)Oc2cc(O)cc(O)c21 [Naringenin]
- p-ERK1/2 / t-ERK (ERK1/2 phosphorylation; 100 μM): 0.3358 and 0.4551 and 0.3494
- p-ERK1/2 / t-ERK (Fold to ADP only) (ERK1/2 phosphorylation; 100 μM): 0.4798 Fold to ADP only and 0.6502 Fold to ADP only and 0.4991 Fold to ADP only
- p-ERK1/2 / t-ERK (ERK1/2 phosphorylation; 200 μM): 0.2390 and 0.3446 and 0.2653
- p-ERK1/2 / t-ERK (Fold to ADP only) (ERK1/2 phosphorylation; 200 μM): 0.3414 Fold to ADP only and 0.4923 Fold to ADP only and 0.3790 Fold to ADP only
- p-ERK1/2 / t-ERK (ERK1/2 phosphorylation; 400 μM): 0.0291 and 0.2751 and 0.1193
- p-ERK1/2 / t-ERK (Fold to ADP only) (ERK1/2 phosphorylation; 400 μM): 0.0416 Fold to ADP only and 0.3930 Fold to ADP only and 0.1704 Fold to ADP only
- p-ERK1/2 / t-ERK (ERK1/2 phosphorylation; 800 μM): 0.0106 and 0.1491 and 0.1406
- p-ERK1/2 / t-ERK (Fold to ADP only) (ERK1/2 phosphorylation; 800 μM): 0.0152 Fold to ADP only and 0.2129 Fold to ADP only and 0.2008 Fold to ADP only
- IC50 (washed rat platelets; ADP 10 μM): ~118 µM
- reduction of aggregation of washed platelets (washed rat platelets; ADP-induced, 100 μM): 45%
- Aggregation (%) (washed rat platelets; Figure 5A: washed platelets, ADP 10 μM, naringenin 200 μM alone, single replicates): 38.3% and 37.5% and 34.7% and 44.0% and 29.6% and 42.4%
- IC50 (washed rat platelets; Rattus norvegicus, Platelet, ADP 10 μM): 118 ± 10.4 µM
- activity at 100 µM (washed rat platelets; Rattus norvegicus, Platelet, washed platelets, ADP 10 μmol/L, compound 100 μM, single replicates, read-out: Aggregation % of control): 50.4%
- activity at 400 µM (washed rat platelets; Rattus norvegicus, Platelet, washed platelets, ADP 10 μmol/L, compound 400 μM, single replicates, read-out: Aggregation % of control): 12%
- activity at 800 µM (washed rat platelets; Rattus norvegicus, Platelet, washed platelets, ADP 10 μmol/L, compound 800 μM, single replicates, read-out: Aggregation % of control): 6.7%
- level of inhibition relative to naringin (washed rat platelets; washed platelets, ADP 10 μM, 800 μM): 11 fold
- ADP-induced platelet aggregation (control group taken as 100%) (washed rat platelets; washed platelets, ADP 10 μM, compound 100 μM): 54.5 ± 6.2%
- ADP-induced platelet aggregation (control group taken as 100%) (washed rat platelets; washed platelets, ADP 10 μM, compound 800 μM): 6.3 ± 1.7%
- Aggregation (%) (washed rat platelets; washed platelets, ADP 10 μmol/L, compound 100 μM, raw data, single replicates): 35.6% and 34.2% and 43.2% and 37.5% and 36.0% and 44.7%
- Aggregation % of control (washed rat platelets; washed platelets, ADP 10 μmol/L, compound 100 μM, single replicates, 100 µM): 48.4 % of control and 61.1 % of control and 53.1 % of control and 51.0 % of control and 63.3 % of control
- Aggregation (%) (washed rat platelets; washed platelets, ADP 10 μmol/L, compound 200 μM, raw data, single replicates): 24.7% and 26.3% and 34.7% and 21.2% and 13.9% and 29.4%
- Aggregation % of control (washed rat platelets; washed platelets, ADP 10 μmol/L, compound 200 μM, single replicates, 200 µM): 35.0 % of control and 37.2 % of control and 49.1 % of control and 30.0 % of control and 19.7 % of control and 41.6 % of control
- Aggregation (%) (washed rat platelets; washed platelets, ADP 10 μmol/L, compound 400 μM, raw data, single replicates): 8.5% and 6.2% and 6.9% and 8.1% and 8.7% and 7.6%
- Aggregation % of control (washed rat platelets; washed platelets, ADP 10 μmol/L, compound 400 μM, single replicates, 400 µM): 8.8 % of control and 9.8 % of control and 11.5 % of control and 12.3 % of control and 10.8 % of control
- Aggregation (%) (washed rat platelets; washed platelets, ADP 10 μmol/L, compound 800 μM, raw data, single replicates): 4.7% and 3.7% and 5.6% and 6.1% and 3.6% and 3.1%
- Aggregation % of control (washed rat platelets; washed platelets, ADP 10 μmol/L, compound 800 μM, single replicates, 800 µM): 5.2 % of control and 7.9 % of control and 8.6 % of control and 5.1 % of control and 4.4 % of control
- PI3Kp110β / GAPDH (Fold to Control) (PI3Kp110β; naringenin 200mg/kg): 0.9111 and 0.9256 and 1.0697
- PI3Kp110β / GAPDH (raw data) (PI3Kp110β; naringenin 200mg/kg): 0.4465 and 0.4536 and 0.5241
- PI3Kp110β / GAPDH (Fold to Control) (PI3Kp110β; naringenin 400mg/kg): 0.7818 and 0.8725 and 1.0518
- PI3Kp110β / GAPDH (raw data) (PI3Kp110β; naringenin 400mg/kg): 0.3831 and 0.4275 and 0.5154
- PI3Kp110β / GAPDH (Fold to Control) (PI3Kp110β; naringenin 800mg/kg): 0.6930 and 0.8263 and 0.7645
- PI3Kp110β / GAPDH (raw data) (PI3Kp110β; naringenin 800mg/kg): 0.3396 and 0.4049 and 0.3746
- expression of PI3Kp110β in rat PRP ex vivo (PI3Kp110β; rats, oral 200, 400, and 800 mg/kg for 7 days, ADP 5 μmol/L): only modest changes
